Measurements taken from US20240327334A1, “Covalent Inhibitors As Antiviral Agents” (Enanta Pharmaceuticals, Inc., priority 2022, published 2024).
pEC50, pIC50: −log10 of the molar value.

How the values were obtained:
SARS-CoV-2 replicon = assay: microbe, parasite or virus in culture; type: cell-based; details: Severe acute respiratory syndrome coronavirus 2, Huh-7
[1] = biological target: SARS-CoV-2 Papain-like (PLpro) protease (Severe acute respiratory syndrome coronavirus 2, UniProt P0DTD1); assay: SARS-CoV-2 Papain-like (PLpro) protease biochemical enzyme inhibition assay (ubiquitin-fluorophore substrate, Ub-R110); details: Ub-R110 substrate; run in duplicate; read-out: PLpro IC50

N#CCNC(=O)C(=O)NCc1ccccc1C(=O)NC1(c2cc(-c3cnn(C4CC4)c3)c3ccccc3c2)CC1 [Example 307]
pEC50 (SARS-CoV-2 replicon): 5.00 to 6.00 | pIC50 [1]: > 7.00

COc1cc(C2(NC(=O)c3ccccc3CNC(=O)C(=O)N[C@@H](C)C#Cc3ccc(C#N)cc3F)CC2)cc2cn(C3CC3)nc12 [Example 334]
pEC50 (SARS-CoV-2 replicon): > 6.00 | pIC50 [1]: > 7.00

O=C(/C=C/CNC(=O)C(=O)NCc1ccccc1C(=O)NC1(c2cccc3ccccc23)CC1)NC1(C(F)(F)F)CC1 [Example 575]
pEC50 (SARS-CoV-2 replicon): < 5.00 | pIC50 [1]: 6.00 to 7.00

C#CCNC(=O)C(=O)NCc1ccccc1C(=O)NC1(c2cc(F)cc(-c3cnn(C4CC4)c3)c2F)CC1 [Example 311]
pEC50 (SARS-CoV-2 replicon): > 6.00 | pIC50 [1]: > 7.00

Cc1nn(C)c(C)c1-c1cc(C2(NC(=O)c3ccccc3CNC(=O)C(=O)N[C@@H](C)C#Cc3nccs3)CC2)cc2ccccc12 [Example 298]
pEC50 (SARS-CoV-2 replicon): > 6.00 | pIC50 [1]: > 7.00

Cc1cccnc1C#CCNC(=O)C(=O)NCc1ccccc1C(=O)NC1(c2cc(F)cc(-c3cn(C)nc3C)c2)CC1 [Example 260]
pEC50 (SARS-CoV-2 replicon): > 6.00 | pIC50 [1]: > 7.00

COc1cc(C2(NC(=O)c3ccccc3CNC(=O)C(=O)N[C@@H](C)C#Cc3nccs3)CC2)cc2cn(C3CC3)nc12 [Example 336]
pEC50 (SARS-CoV-2 replicon): > 6.00 | pIC50 [1]: > 7.00

C#CCNC(=O)C(=O)NCc1ccccc1C(=O)NC1(c2cccc3nc(Cl)ccc23)CC1 [Example 387]
pEC50 (SARS-CoV-2 replicon): > 6.00 | pIC50 [1]: > 7.00

C#CCNC(=O)C(=O)NCc1ccccc1C(=O)NC1(c2cc(-c3cnn(C(F)F)c3)cc(C(F)(F)F)c2)CC1 [Example 473]
pEC50 (SARS-CoV-2 replicon): 5.00 to 6.00 | pIC50 [1]: 6.00 to 7.00

O=C(NCC#Cc1nccs1)C(=O)NCc1ccccc1C(=O)NC1(c2cc(F)cc(-c3cnn(C4COC4)c3)c2)CC1 [Example 253]
pEC50 (SARS-CoV-2 replicon): > 6.00 | pIC50 [1]: > 7.00

N#CCNC(=O)C(=O)NCc1ccccc1C(=O)NC1(c2cc(C(=O)NC3CC3)cc3ccccc23)CC1 [Example 117]
pEC50 (SARS-CoV-2 replicon): 5.00 to 6.00 | pIC50 [1]: > 7.00

N#Cc1ccc(C#CCNC(=O)C(=O)NCc2ccccc2C(=O)NC2(c3ccc4ccccc4c3)CC2)c(F)c1 [Example 86]
pEC50 (SARS-CoV-2 replicon): > 6.00 | pIC50 [1]: > 7.00

O=C(NCC#Cc1nccs1)C(=O)NCc1ccccc1C(=O)NC1(c2cc(Cl)cc(-c3cnco3)c2)CC1 [Example 449]
pEC50 (SARS-CoV-2 replicon): > 6.00 | pIC50 [1]: > 7.00

N#CCNC(=O)C(=O)NCc1ccccc1C(=O)NC1(c2cccc(Br)c2)CC1 [Example 545]
pEC50 (SARS-CoV-2 replicon): < 5.00 | pIC50 [1]: 6.00 to 7.00

CN(C(=O)c1cc(Cl)cc(C2(NC(=O)c3ccccc3CNC(=O)C(=O)NCC#Cc3nccs3)CC2)c1)c1ccc(F)cc1 [Example 79]
pEC50 (SARS-CoV-2 replicon): > 6.00 | pIC50 [1]: > 7.00

C#CCNC(=O)C(=O)NCc1ccc(C(=O)N2CC(F)(F)C2)cc1C(=O)NC1(c2ccc(F)c3ccccc23)CC1 [Example 61]
pEC50 (SARS-CoV-2 replicon): > 6.00 | pIC50 [1]: > 7.00

O=C(/C=C/CNC(=O)C(=O)NCc1ccccc1C(=O)NC1(c2cccc3ccccc23)CC1)Nc1ccccn1 [Example 569]
pEC50 (SARS-CoV-2 replicon): > 6.00 | pIC50 [1]: 6.00 to 7.00

CN1C[C@H](F)CC1COc1ccc(CNC(=O)C(=O)NCC#N)c(C(=O)NC2(c3cc(-c4cnn(C5CC5)c4)cc4ccccc34)CC2)c1 (stereo partly drawn) [Example 322]
pEC50 (SARS-CoV-2 replicon): > 6.00 | pIC50 [1]: > 7.00

CC1(O)CN(c2cc(C3(NC(=O)c4ccccc4CNC(=O)C(=O)NCC#N)CC3)c3ccccc3c2)C1 [Example 319]
pEC50 (SARS-CoV-2 replicon): 5.00 to 6.00 | pIC50 [1]: > 7.00

O=C(NC/C=C/C(=O)N1CCCCO1)C(=O)NCc1ccccc1C(=O)NC1(c2cccc3ccccc23)CC1 [Example 566]
pEC50 (SARS-CoV-2 replicon): 5.00 to 6.00 | pIC50 [1]: 6.00 to 7.00

N#CCNC(=O)C(=O)NCc1ccccc1C(=O)NC1(c2cc(Cl)cc(-c3cnc(C4CC4)nc3)c2)CC1 [Example 74]
pEC50 (SARS-CoV-2 replicon): 5.00 to 6.00 | pIC50 [1]: > 7.00

N#CCNC(=O)C(=O)NCc1ccccc1C(=O)NC1(c2cc(-c3cnn[nH]3)cc3ccccc23)CC1 [Example 425]
pEC50 (SARS-CoV-2 replicon): > 6.00 | pIC50 [1]: > 7.00

C[C@H](NC(=O)c1ccccc1CNC(=O)C(=O)NCC#N)c1cc(C(F)(F)F)nc2ccccc12 [Example 327]
pEC50 (SARS-CoV-2 replicon): 5.00 to 6.00 | pIC50 [1]: > 7.00

C[C@@H](C#Cc1ccc(C#N)cc1C(F)(F)F)NC(=O)C(=O)NCc1ccccc1C(=O)NC1(c2ccc3nn(C)cc3c2)CC1 [Example 109]
pEC50 (SARS-CoV-2 replicon): > 6.00 | pIC50 [1]: > 7.00

COc1cc(C2(NC(=O)c3ccccc3CNC(=O)C(=O)N[C@@H](C)C#Cc3ncccn3)CC2)cc2cn(C3CC3)nc12 [Example 532]
pEC50 (SARS-CoV-2 replicon): > 6.00 | pIC50 [1]: > 7.00

C#CCNC(=O)C(=O)NCc1ccccc1C(=O)NC1(c2cc(OC)cc(-c3cnn(C4CC4)c3)c2)CC1 [Example 244]
pEC50 (SARS-CoV-2 replicon): > 6.00 | pIC50 [1]: > 7.00

C=CC(=O)NNC(=O)C(=O)NCc1ccccc1C(=O)N[C@H](C)c1cccc2ccccc12 [Example 22]
pEC50 (SARS-CoV-2 replicon): < 5.00 | pIC50 [1]: 6.00 to 7.00

C[C@@H](C#Cc1nccs1)NC(=O)C(=O)NCc1ccccc1C(=O)NC1(c2ccc3ccccc3c2)CC1 [Example 183]
pEC50 (SARS-CoV-2 replicon): > 6.00 | pIC50 [1]: > 7.00

C#CCNC(=O)C(=O)NCc1ccccc1C(=O)NC1(c2cc(-c3ccccc3)cc(C(F)(F)F)c2)CC1 [Example 469]
pEC50 (SARS-CoV-2 replicon): 5.00 to 6.00 | pIC50 [1]: > 7.00

C#CCNC(=O)C(=O)NCc1ccccc1C(=O)NC1(c2cc(-c3cn(C4CC4)nn3)cc(C(F)(F)F)c2)CC1 [Example 59]
pEC50 (SARS-CoV-2 replicon): > 6.00 | pIC50 [1]: > 7.00

C[C@@H](C#Cc1ccc(C#N)cc1F)NC(=O)C(=O)NCc1ccccc1C(=O)NC1(c2ccc3nn(C)cc3c2)CC1 [Example 98]
pEC50 (SARS-CoV-2 replicon): > 6.00 | pIC50 [1]: > 7.00

N#CCNC(=O)C(=O)NCc1ccccc1C(=O)NC1(c2cccc(C(F)(F)F)c2Cl)CC1 [Example 370]
pEC50 (SARS-CoV-2 replicon): 5.00 to 6.00 | pIC50 [1]: 6.00 to 7.00

C[C@@H](NC(=O)c1c(F)cccc1CNC(=O)C(=O)NCC#N)c1cccc2ccccc12 [Example 29]
pEC50 (SARS-CoV-2 replicon): 5.00 to 6.00 | pIC50 [1]: > 7.00

Cn1cc2cc(C3(NC(=O)c4ccccc4CNC(=O)C(=O)NCC#Cc4ccc(C#N)cc4F)CC3)ccc2n1 [Example 103]
pEC50 (SARS-CoV-2 replicon): > 6.00 | pIC50 [1]: > 7.00

CC(C)(O)Cn1cc(-c2cc(C3(NC(=O)c4ccccc4CNC(=O)C(=O)NCC#N)CC3)c3ccccc3c2)cn1 [Example 353]
pEC50 (SARS-CoV-2 replicon): > 6.00 | pIC50 [1]: > 7.00

Cc1n[nH]c(C)c1-c1cc(C(F)(F)F)cc(C2(NC(=O)c3ccccc3CNC(=O)C(=O)NCC#N)CC2)c1 [Example 476]
pEC50 (SARS-CoV-2 replicon): 5.00 to 6.00 | pIC50 [1]: 6.00 to 7.00

COC(=O)/C(C)=C/CNC(=O)C(=O)NCc1ccccc1C(=O)N[C@H](C)c1cccc2ccccc12 [Example 24]
pEC50 (SARS-CoV-2 replicon): > 6.00 | pIC50 [1]: > 7.00

O=C(NCC#Cc1cncnc1)C(=O)NCc1ccccc1C(=O)NC1(c2cccc3ccccc23)CC1 [Example 158]
pEC50 (SARS-CoV-2 replicon): > 6.00 | pIC50 [1]: > 7.00

C[C@@H](C#Cc1ccc(C#N)c(F)c1)NC(=O)C(=O)NCc1ccccc1C(=O)NC1(c2ccc3nn(C)cc3c2)CC1 [Example 106]
pEC50 (SARS-CoV-2 replicon): > 6.00 | pIC50 [1]: > 7.00

C#CCNC(=O)C(=O)NCc1ccccc1C(=O)NC1(c2cc(-c3c(C)n[nH]c3C)cc(C(F)(F)F)c2)CC1 [Example 477]
pEC50 (SARS-CoV-2 replicon): > 6.00 | pIC50 [1]: > 7.00

O=C(NCC#Cc1nccs1)C(=O)NCc1ccccc1C(=O)NC1(c2cc(F)cc(C(=O)N3CCOCC3)c2)CC1 [Example 138]
pEC50 (SARS-CoV-2 replicon): > 6.00 | pIC50 [1]: > 7.00

COC(=O)/C=C/CNC(=O)C(=O)NCc1ccccc1C(=O)N[C@H](C)c1cc(-c2cccs2)cc(C(F)(F)F)c1 [Example 461]
pEC50 (SARS-CoV-2 replicon): > 6.00 | pIC50 [1]: > 7.00

CC(=O)N1CCN(c2cc(C3(NC(=O)c4ccccc4CNC(=O)C(=O)NCC#N)CC3)c3ccccc3c2)CC1 [Example 328]
pEC50 (SARS-CoV-2 replicon): 5.00 to 6.00 | pIC50 [1]: > 7.00

CC[C@@H](C#Cc1ncc(F)cn1)NC(=O)C(=O)NCc1ccccc1C(=O)NC1(c2ccc3nn(C)cc3c2)CC1 [Example 213]
pEC50 (SARS-CoV-2 replicon): > 6.00 | pIC50 [1]: > 7.00

C#CCNC(=O)C(=O)NCc1ccc(C#N)cc1C(=O)NC1(c2ccc(F)c3ccccc23)CC1 [Example 53]
pEC50 (SARS-CoV-2 replicon): > 6.00 | pIC50 [1]: > 7.00

O=C(NCC#Cc1ncccc1OC(F)(F)F)C(=O)NCc1ccccc1C(=O)NC1(c2ccc3ccccc3c2)CC1 [Example 201]
pEC50 (SARS-CoV-2 replicon): > 6.00 | pIC50 [1]: > 7.00

COc1cc(C2(NC(=O)c3ccccc3CNC(=O)C(=O)N[C@@H](C)C#Cc3ncccc3Cl)CC2)cc2cn(C3CC3)nc12 [Example 279]
pEC50 (SARS-CoV-2 replicon): > 6.00 | pIC50 [1]: > 7.00

COc1cc(C2(NC(=O)c3ccccc3CNC(=O)C(=O)NC/C=C/c3ncccn3)CC2)cc2cn(C3CC3)nc12 [Example 577]
pEC50 (SARS-CoV-2 replicon): > 6.00 | pIC50 [1]: > 7.00

Cn1cc2cc(C3(NC(=O)c4ccccc4CNC(=O)C(=O)NCC#Cc4ccc(C#N)cc4OC(F)(F)F)CC3)ccc2n1 [Example 214]
pEC50 (SARS-CoV-2 replicon): > 6.00 | pIC50 [1]: > 7.00

O=C(NCC#CBr)C(=O)NCc1ccccc1C(=O)NC1(c2ccc3ccccc3c2)CC1 [Example 163]
pEC50 (SARS-CoV-2 replicon): > 6.00 | pIC50 [1]: > 7.00

Cc1cc(C)nc(C#CCNC(=O)C(=O)NCc2ccccc2C(=O)NC2(c3ccc4ccccc4c3)CC2)n1 [Example 178]
pEC50 (SARS-CoV-2 replicon): > 6.00 | pIC50 [1]: > 7.00

CC(C#N)NC(=O)C(=O)NCc1ccccc1C(=O)NC1(c2cccc3ccccc23)CC1 (stereo not drawn) [Example 33]
pEC50 (SARS-CoV-2 replicon): < 5.00 | pIC50 [1]: 6.00 to 7.00

Cc1nn(C2CC2)c(C)c1-c1cc(F)cc(C2(NC(=O)c3ccccc3CNC(=O)C(=O)NCC#Cc3nccs3)CC2)c1 [Example 139]
pEC50 (SARS-CoV-2 replicon): > 6.00 | pIC50 [1]: > 7.00

COc1cc(C2(NC(=O)c3ccccc3CNC(=O)C(=O)N[C@@H](C)C#Cc3ccc(S(C)(=O)=O)cc3F)CC2)cc2cn(C3CC3)nc12 [Example 149]
pEC50 (SARS-CoV-2 replicon): > 6.00 | pIC50 [1]: > 7.00

C#CCNC(=O)C(=O)NCc1ccccc1C(=O)NC1(c2cc(-c3cccs3)cc(Cl)c2F)CC1 [Example 303]
pEC50 (SARS-CoV-2 replicon): > 6.00 | pIC50 [1]: > 7.00

CN(C)CCn1cc(-c2cc(F)cc(C3(NC(=O)c4ccccc4CNC(=O)C(=O)NCC#Cc4nccs4)CC3)c2)cn1 [Example 251]
pEC50 (SARS-CoV-2 replicon): > 6.00 | pIC50 [1]: > 7.00

C[C@@H](C#Cc1ccc(C#N)cc1Cl)NC(=O)C(=O)NCc1ccccc1C(=O)NC1(c2ccc3nn(C)cc3c2)CC1 [Example 107]
pEC50 (SARS-CoV-2 replicon): > 6.00 | pIC50 [1]: > 7.00
